In data set [1] the test system is Myzus persicae. As to the kind of experiment: Myzus test; oral (MYZUPE). It is filed as in vivo. The note with it: 100 g/ha; oral uptake by sucking; 100 % = all aphids killed. An excerpt:
Zur Herstellung einer zweckmäßigen Wirkstoffzubereitung vermischt man 1 Gewichtsteil Wirkstoff mit den angegebenen Mengen Lösungsmittel und verdünnt das Konzentrat mit Wasser auf die gewünschte Konzentration.
Gefäße werden mit allen Stadien der Grünen Pfirsichblattlaus (Myzus persicae) besetzt, durch saugen an der Wirkstoffzubereitung der gewünschten Konzentration wird behandelt.
(§1) Nach der gewünschten Zeit wird die Wirkung in % bestimmt. Dabei bedeutet 100 %, dass alle Blattläuse abgetötet wurden; 0 % bedeutet, dass keine Blattläuse abgetötet wurden.

The test system of data set [2] is Meloidogyne incognita. As to the kind of experiment: Meloidogyne test (MELGIN). The note with it: 20 ppm; sand with lettuce seeds; 100 % = no galls. The format is in vivo. An excerpt:
(§2) Zur Herstellung einer zweckmäßigen Wirkstoffzubereitung vermischt man 1 Gewichtsteil Wirkstoff mit den angegebenen Mengen Lösungsmittel und Emulgator und verdünnt das Konzentrat mit Wasser auf die gewünschte Konzentration.
Gefäße werden mit Sand, Wirkstofflösung, Meloidogyne incognita-Ei-Larvensuspension und Salatsamen gefüllt. Die Salatsamen keimen und die Pflänzchen entwickeln sich. An den Wurzeln entwickeln sich die Gallen.
Nach der gewünschten Zeit wird die nematizide Wirkung an Hand der Gallenbildung in % bestimmt. Dabei bedeutet 100 %, dass keine Gallen gefunden wurden; 0 % bedeutet, dass die Zahl der Gallen an den behandelten Pflanzen der der unbehandelten Kontrolle entspricht.

A short description of data set [3]: physchem. The settings on record: pH 2.3.
Text: Die Bestimmung erfolgt im sauren Bereich bei pH 2.3 mit 0,1% wässriger Phosphorsäure und Acetonitril als Eluenten linearer Gradient von 10% Acetonitril bis 95% Acetonitril.
For data set [4], the system named is Myzus persicae. In words: Myzus test (MYZUPE spray treatment). The format is in vivo. The settings on record: 500 g/ha; spray on Chinese cabbage leaf discs (Brassica pekinensis); 100 % = all aphids killed.
Text: (§3) Zur Herstellung einer zweckmäßigen Wirkstoffzubereitung vermischt man 1 Gewichtsteil Wirkstoff mit den angegebenen Mengen Lösungsmittel und Emulgator und verdünnt das Konzentrat mit emulgatorhaltigem Wasser auf die gewünschte Konzentration.
Chinakohlblattscheiben (Brassica pekinensis), die von allen Stadien der Grünen Pfirsichblattlaus (Myzus persicae) befallen sind, werden mit einer Wirkstoffzubereitung der gewünschten Konzentration gespritzt.
as §1

Data set [5] has as its system Venturia inaequalis. In words: Venturia test (apple) / protective. The note with it: 100ppm active ingredient, evaluated 10 days after inoculation. It is filed as in vivo.
Text: as §2
Zur Prüfung auf protektive Wirksamkeit werden junge Pflanzen mit der Wirkstoffzubereitung in der angegebenen Aufwandmenge besprüht. Nach Antrocknen des Spritzbelages werden die Pflanzen mit einer wäßrigen Konidiensuspension des Apfelschorferregers Venturia inaequalis inokuliert und verbleiben dann 1 Tag bei ca. 20°C und 100% relativer Luftfeuchtigkeit in einer Inkubations-kabine.
Die Pflanzen werden dann im Gewächshaus bei ca. 21°C und einer relativen Luftfeuchtigkeit von ca. 90% aufgestellt.
10 Tage nach der Inokulation erfolgt die Auswertung. Dabei bedeutet 0% ein Wirkungsgrad, der demjenigen der Kontrolle entspricht, während ein Wirkungsgrad von 100% bedeutet, daß kein Befall beobachtet wird.

The subject of data set [6] is Botrytis cinerea. In words: Botrytis test (cucumber) / protective. The note with it: 500ppm active ingredient, evaluated 5-6 days after inoculation. The format is in vivo. How it is done:
as §2
Zur Prüfung auf protektive Wirksamkeit bespritzt man junge Gurkenpflanzen mit der Wirkstoffzubereitung in der angegebenen Aufwandmenge. 1 Tag nach der Behandlung werden die Pflanzen mit einer Sporensuspension von Botrytis cinerea inokuliert und stehen dann 48h bei 100% rel. Feuchte und 22°C. Anschließend stehen die Pflanzen bei 96% rel. Luftfeuchtigkeit und einer Temperatur von 14°C.
5-6 Tage nach der Inokulation erfolgt die Auswertung. Dabei bedeutet 0 % ein Wirkungsgrad, der demjenigen der Kontrolle entspricht, während ein Wirkungsgrad von 100 % bedeutet, dass kein Befall beobachtet wird.

Data set [7] deals with Blumeria graminis f·sp. hordei. In words: Blumeria graminis test (barley) / protective. The format is in vivo. The settings on record: 1000 ppm active ingredient, evaluated 7 days after inoculation.
Text: as §2
Zur Prüfung auf protektive Wirksamkeit besprüht man junge Pflanzen mit der Wirkstoffzubereitung in der angegebenen Aufwandmenge.
Nach Antrocknen des Spritzbelages werden die Pflanzen mit Sporen von Blumeria graminis f·sp. hordei bestäubt.
Die Pflanzen werden in einem Gewächshaus bei einer Temperatur von ca. 18°C und einer relativen Luftfeuchtigkeit von ca. 80 % aufgestellt, um die Entwicklung von Mehltaupusteln zu begünstigen.
7 Tage nach der Inokulation erfolgt die Auswertung. Dabei bedeutet 0 % ein Wirkungsgrad, der demjenigen der Kontrolle entspricht, während ein Wirkungsgrad von 100 % bedeutet, dass kein Befall beobachtet wird.

For data set [8], the system named is AMARE. As to the kind of experiment: Herbicidal action, test type PE. The format is in vivo. The note with it: Test-Typ PE, 320 G/HA. An excerpt: (§4) Die herbizide Wirkung der Verbindungen der allgemeinen Formel (I) wird in den nachfolgenden Tabellen näher erläutert.
The test system of data set [9] is SETVI. In words: Herbicidal action, test type PE. It is filed as in vivo. The settings on record: Test-Typ PE, 320 G/HA.
Text: as §4

Data set [10] concerns VERPE. As to the kind of experiment: Herbicidal action, test type PE. The settings on record: Test-Typ PE, 320 G/HA. It is filed as in vivo.
Text: as §4

In data set [11] the test system is VIOTR. As to the kind of experiment: Herbicidal action, test type PE. It is filed as in vivo. The note with it: Test-Typ PE, 320 G/HA.
Text: as §4

For data set [12], the system named is ECHCG. As to the kind of experiment: Herbicidal action, test type PE. It is filed as in vivo. The note with it: Test-Typ PE, 320 G/HA.
Text: as §4

Data set [13] has as its system Tetranychus urticae. As to the kind of experiment: Tetranychus test, OP-resistant (TETRUR spray treatment). The format is in vivo. The note with it: 500 g/ha; spray on bean leaf discs (Phaseolus vulgaris); 100 % = all spider mites killed.
Text: as §3
Bohnenblattscheiben (Phaseolus vulgaris), die von allen Stadien der Gemeinen Spinnmilbe (Tetranychus urticae) befallen sind, werden mit einer Wirkstoffzubereitung der gewünschten Konzentration gespritzt.
Nach der gewünschten Zeit wird die Wirkung in % bestimmt. Dabei bedeutet 100 %, dass alle Spinnmilben abgetötet wurden; 0 % bedeutet, dass keine Spinnmilben abgetötet wurden.

The subject of data set [14] is AMARE. In words: Herbicidal action, test type PO. It is filed as in vivo. The settings on record: TEST-TYP PO, 80 G/HA.
Text: as §4

Data set [15] has as its system SETVI. As to the kind of experiment: Herbicidal action, test type PO. It is filed as in vivo. The settings on record: TEST-TYP PO, 80 G/HA.
Text: as §4

Data set [16] deals with VERPE. In words: Herbicidal action, test type PO. It is filed as in vivo. The note with it: TEST-TYP PO, 80 G/HA.
Text: as §4

The test system of data set [17] is DIGSA. As to the kind of experiment: Herbicidal action, test type PE. It is filed as in vivo. The note with it: Test-Typ PE, 320 G/HA.
Text: as §4

Data set [18] relates to PHBPU. In words: Herbicidal action, test type PO. It is filed as in vivo. The note with it: TEST-TYP PO, 80 G/HA.
Text: as §4

Structures are written as SMILES.

`CCN(C)C=Nc1cnc(-c2ccc(OC(F)(F)F)c(F)c2)cc1C` [Beispiel 247]: the Wirkung in data set [1] was no less than 80%. In addition, in [2], the “nematizide Wirkung an Hand der Gallenbildung” value is recorded as no less than 80%.

As usually defined, the chromatographic logP is a lipophilicity value derived from retention on a column. Molecule `CCN(C)C=Nc1cnc(-c2ccc([Si](C)(C)C)cc2)cc1C` [compound 116] had a chromatographic logP in data set [3] of 1.6.

Take `CCN(C)C=Nc1cnc(-c2cccnc2)cc1C` [Beispiel 95]: the Wirkung in [1] and in data set [4] was no less than 80% in each case.

Turning to `Cc1cc(-c2cc(C(F)(F)F)cc(C(F)(F)F)c2)ncc1N=CN(C)C` [Beispiel 172], the Wirkung in [1] is reported as no less than 80%.

`CCCCN(C=Nc1cnc(-c2ccc(Cl)c(C(F)(F)F)c2)cc1C)CCCC` [compound 118] returned a chromatographic logP in data set [3] of 2.49.

As for `Cc1cc(-c2ccc(C(C)(C)C)cc2)ncc1N=CN1CCCCC1` [Beispiel 150], the Wirkungsgrad in [5] and in data set [6] was no less than 70% throughout.

As for `Cc1cc(-c2cccnc2)ncc1N=CN(C)C` [Beispiel 270], the Wirkung in data set [1] and in [4] was no less than 80% throughout.

As for `CC(=Nc1cnc(-c2ccc(Cl)c(C(F)(F)F)c2)cc1C)N(C)C` [compound 123], the chromatographic logP in data set [3] came out at 1.03.

With `Cc1cc(-c2ccc(Cl)c(C(F)(F)F)c2)ncc1N=CN(C(C)C)C(C)C` [compound 120], the chromatographic logP in data set [3] came to 2.23.

Consider `CCN(C)C=Nc1cnc(-c2ccc(C(C)(C)C)cc2)cc1C` [Beispiel 142], for which the Wirkungsgrad in data set [6] and in data set [7] was no less than 70% each time.

Regarding `Cc1cc(-c2ccc(OC(F)(F)F)cc2)ncc1N=CN(C)C` [compound 113], the chromatographic logP in data set [3] came out at 1.25.

In data set [3], `CCN(C)C=Nc1cnc(-c2ccc(OC(F)(F)F)cc2)cc1C` [compound 114] returned a chromatographic logP of 1.34. This chromatographic logP and that of the molecule before are within 0.2 log units of each other.

Take `CCN(C=Nc1cnc(-c2ccc(Cl)c(C(F)(F)F)c2)cc1C)CC` [Beispiel 119]: the “herbizide Wirkung AMARE” value in [8] is given as 80. The “herbizide Wirkung SETVI” value in data set [9] amounted to 100. The molecule also showed a chromatographic logP in data set [3] of 1.92.

Consider `Cc1cc(-c2ccc(F)c(C(F)(F)F)c2)ncc1N=CN1CCCC1` [compound 121], for which the chromatographic logP in data set [3] was 1.85.

In turn, `Cc1cc(-c2ccc(Cl)c(C(F)(F)F)c2)ncc1N=CN1CCCC1` [compound 117] had a chromatographic logP in data set [3] of 1.75.

Regarding `Cc1cc(-c2ccc(C(F)(F)F)c(Cl)c2)ncc1N=CN(C)C` [Beispiel 105], the “herbizide Wirkung SETVI” value in data set [9] and in [15] was 80 in each case. Besides, the “herbizide Wirkung VERPE” value in [10] is recorded as 100; in [16], 80. Also, in data set [11], the “herbizide Wirkung VIOTR” value is reported as 90. In addition, the “herbizide Wirkung ECHCG” value in data set [12] is recorded as 80. This molecule also displayed a Wirkung in data set [13] of no less than 80%. For the same molecule, the “herbizide Wirkung AMARE” value in [14] was 80. Further, the “nematizide Wirkung an Hand der Gallenbildung” value in data set [2] is on record as no less than 80%.

In turn, `Cc1cc(-c2ccc([Si](C)(C)C)cc2)ncc1N=CN(C)C` [compound 115] showed a chromatographic logP in [3] of 1.51.

Take `CCN(C)C=Nc1cnc(-c2ccc(C3CCCCC3)cc2)cc1C` [Beispiel 209]: the Wirkungsgrad in data set [5] and in data set [6] was no less than 70% each time.

With `CC(=Nc1cnc(-c2ccc(Cl)c(C(F)(F)F)c2)cc1C)N1CCCCC1` [compound 124], the chromatographic logP in [3] was determined as 0.94.

Molecule `Cc1cc(-c2ccc(F)c(C(F)(F)F)c2)ncc1N=CN(C(C)C)C(C)C` [compound 122] gave a chromatographic logP in data set [3] of 1.9.

In the case of `Cc1cc(-c2ccc(C(F)(F)F)cc2)ncc1N=CN(C)C` [Beispiel 100], the “nematizide Wirkung an Hand der Gallenbildung” value in [2] is no less than 80%.

Regarding `Cc1cc(-c2ccc(F)nc2)ncc1N=CN(C)C` [Beispiel 234], the Wirkung in data set [1] and in [4] was no less than 80% each time. For the same molecule, the “nematizide Wirkung an Hand der Gallenbildung” value in [2] is given as no less than 80%.

For the molecule `CCN(C)C=Nc1cnc(-c2ccc(Cl)c(C(F)(F)F)c2)cc1C` [Beispiel 15], the Wirkungsgrad in [5], in data set [6] and in data set [7] was no less than 70% throughout. Besides, the “herbizide Wirkung AMARE” value in [8] is on record as 90. The “herbizide Wirkung SETVI” value in data set [9] was determined as 100. For the same molecule, in data set [17], the “herbizide Wirkung DIGSA” value worked out at 100. Further, the “herbizide Wirkung VERPE” value is 90 in data set [10] and 80 in [16]. Besides, the “herbizide Wirkung ECHCG” value in data set [12] is given as 90. In data set [18], the “herbizide Wirkung PHBPU” value is recorded as 90.

For `Cc1cc(Cl)ncc1N=CN(C)C` [Beispiel 131], in data set [6], the Wirkungsgrad is no less than 70%.
